Data on eight compounds can be found in patent US20220411377A1, “SELECTIVE NEURONAL NITRIC OXIDE SYNTHASE INHIBITORS” (Northwestern University, priority 2019, published 2022).

pKi: −log10 of the molar value. Where a name gives a salt, the structure may show the parent alone.

The target of data set [1] is H2 receptor (Homo sapiens, UniProt P25021). The experiment in a line: PDSP off-target profiling, H2 receptor. Format: binding.
Description: (§1) Off-Target Profiling. […] In this assay,^28 compounds were screened against a panel of 45 pharmacologically relevant CNS targets and receptors using a radioligand displacement assay.
Data set [2] concerns the target rat nNOS D597N single mutant (Rattus norvegicus, UniProt P29476, D597N).
Protocol: (§2) Purified NOS Enzyme Assays. Rat and human nNOS, rat nNOS mutants, murine macrophage iNOS, human iNOS, and human eNOS were recombinant enzymes (expressed in E. coli and purified as reported previously).^21,50-52 To test for NOS inhibition, the hemoglobin capture assay was used to measure nitric oxide production. […] Also included were 100 μM NADPH, 0.83 mM CaCl2), approximately 320 units/mL of calmodulin, 10 μM H4B, and human oxyhemoglobin (3 μM). For iNOS, the CaCl2) and calmodulin were omitted and replaced with HEPES buffer (as neither are required for activation of iNOS). The assay was performed in 96-well plates using a Synergy 4 BioTek hybrid reader. […] Kinetic readouts were performed for 5 min. Each compound was assayed at least in duplicate, and six to nine concentrations (500 μM-50 nM or 100 μM-10 nM for eNOS and iNOS; 50 μM to 5 nM for rat and human nNOS) were used to construct concentration-response curves.
Data set [3] has as its target T1, human eNOS (heNOS) (Homo sapiens, UniProt P29474).
T1 construct: made in house; host or cells: E. coli
Put plainly: Hemoglobin capture assay, purified human eNOS. It counts as biochemical.
Protocol: as §2

Data set [4] has as its target human iNOS (hiNOS) (Homo sapiens, UniProt P35228). As to conditions: read-out: Ki hiNOS; Ki calculated from IC50 (Cheng-Prusoff).
Protocol: Human iNOS Inhibition Study.
as §2
The target in data set [5] is H3 receptor (Homo sapiens, UniProt Q9Y5N1). The experiment in a line: PDSP off-target profiling, H3 receptor.
H3 receptor, sequence (Q9Y5N1 whole entry): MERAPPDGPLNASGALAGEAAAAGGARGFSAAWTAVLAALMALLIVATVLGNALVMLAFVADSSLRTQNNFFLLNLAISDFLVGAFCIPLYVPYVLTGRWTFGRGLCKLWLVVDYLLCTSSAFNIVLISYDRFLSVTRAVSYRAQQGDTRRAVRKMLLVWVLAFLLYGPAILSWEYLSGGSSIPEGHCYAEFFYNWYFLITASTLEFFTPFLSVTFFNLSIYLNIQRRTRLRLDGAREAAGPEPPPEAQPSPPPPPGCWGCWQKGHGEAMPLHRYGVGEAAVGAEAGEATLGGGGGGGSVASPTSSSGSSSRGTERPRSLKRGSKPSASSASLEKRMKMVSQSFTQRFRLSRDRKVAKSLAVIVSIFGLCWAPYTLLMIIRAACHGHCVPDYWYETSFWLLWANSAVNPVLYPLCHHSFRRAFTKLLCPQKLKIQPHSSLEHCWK
Description: as §1
In data set [6] the target is T2, rat nNOS (rnNOS) (Rattus norvegicus, UniProt P29476).
T2 construct: made in house; host or cells: E. coli
Put plainly: Hemoglobin capture assay, purified rat nNOS. Format: biochemical.
Protocol: as §2

Data set [7] deals with rat nNOS M336V/D597N double mutant (Rattus norvegicus, UniProt P29476, D597N/M336V). The conditions noted are these: versus the single mutant.
Protocol: as §2
Data set [8] deals with panel of 45 pharmacologically relevant CNS targets and receptors. The conditions noted are these: for PDSP binding summary: insignificant: 10 µM.
Description: as §1
The conditions of data set [9]: PAMPA. For orientation: The PAMPA barrier holds no transporters, so it reflects passive diffusion.
Protocol: In this assay, an artificial membrane containing BBB phospholipids is used to assess permeability.
PAMPA-BBB Assay. The PAMPA-BBB assay was performed following a protocol described previously.^21 Briefly, the assay was performed in 10 mM phosphate-buffered saline (PBS) buffer (pH 7.5), and compounds were tested at a concentration of 200 μM. The donor plate was first coated with 4 μL of porcine brain lipid (20 mg/mL in dodecane), followed by addition of 250 μL of a test compound. The acceptor plate was filled with 250 μL of PBS, and the donor plate was carefully placed on top of the acceptor plate to make a “sandwich”. The plate was incubated at 25° C. for 17 h in a saturated humidity atmosphere with orbital agitation at 100 rpm. […] After incubation, 150 μL of the test solution was taken from each well from both sides (donor and acceptor) and transferred to the UV plate for measurement. The effective permeability (Pe) was calculated using the following equation^57
R is the retention membrane factor and was calculated using the following equation

H2 receptor, sequence (P25021 whole entry): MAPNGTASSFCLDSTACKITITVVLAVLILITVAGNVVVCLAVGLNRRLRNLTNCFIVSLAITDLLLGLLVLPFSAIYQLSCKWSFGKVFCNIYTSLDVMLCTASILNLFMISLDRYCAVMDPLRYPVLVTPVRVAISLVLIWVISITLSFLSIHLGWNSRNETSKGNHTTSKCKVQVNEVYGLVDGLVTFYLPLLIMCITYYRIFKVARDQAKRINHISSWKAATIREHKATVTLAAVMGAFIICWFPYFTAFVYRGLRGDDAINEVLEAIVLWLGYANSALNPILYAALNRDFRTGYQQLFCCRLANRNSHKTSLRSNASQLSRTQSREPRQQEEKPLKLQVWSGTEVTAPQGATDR

“7-(3-(2-Aminoethyl)phenyl)-4-methylquinolin-2-amine Dihydrochloride [Compound 12]”: the “off-target binding classification, H2 receptor” value in [1] was “concerning (concerning (Ki<100 nM, or <˜2× nNOS Ki value))”. Also, the “ΔGbind hnNOS D597N mutant” value in [2] (obtained from Ki values) is -7.3 kcal/mol. Further, the “decrease in potency, D597N mutant” value in [2] (versus wild type) is 8 fold. In addition, the pKi was 4.28 in data set [3] (Ki calculated from IC50) and 4.52 in data set [4]. The “ΔGbind WT heNOS” value in data set [3] (obtained from Ki values) was -4.5 kcal/mol. The “% remaining at 60 min (—NADPH)” value (HLM without NADPH, 60 min) is 87%. The “% remaining at 60 min (buffer)” value (buffer control, 60 min) came out at 67%. In addition, the t1/2 (half-life in HLM, Dihydrochloride) is greater than 1 h. This compound also came in with a CLint (in vitro intrinsic clearance, HLM) of 8 mL/min/kg.
Turning to `Cc1cc(N)nc2cc(-c3ccc(OCC4CC4)c(CN)c3)ccc12.Cl.Cl` [Compound 29, 7-(3-(Aminomethyl)-4-(cyclopropylmethoxy)phenyl)-4-methylquinolin-2-amine Dihydrochloride], the “off-target binding classification, H3 receptor” value in data set [5] is listed as “concerning (concerning (Ki<100 nM, or <˜2× nNOS Ki value))”.
For the compound `Cc1cc(N)nc2cc(-c3ccc4c(c3)C(N)CC4)ccc12.Cl.Cl` (racemic) [Compound 18, 7-(3-Amino-2,3-dihydro-1H-inden-5-yl)-4-methylquinolin-2-amine Dihydrochloride], the “loss in rnNOS potency relative to comparator” value in [6] (6 vs 5, 15 and 18 vs 12, 17 vs 7) is reported as “approximately 3 fold”. In addition, in data set [6] (wild-type rat nNOS, Ki calculated from IC50), the negative logarithm of the Ki (pKi) was 6.74.
On to `Cc1cc(N)nc2cc(-c3ccc(OCc4cocn4)c(CN)c3)ccc12` [Compound 36, 7-(3-(Aminomethy)-4-(oxazol-4-ylmethoxy)phenyl)-4-methylquinolin-2-amine Trihydrochloride], for which, in [7], the “increased potency against the double mutant” value was 5 fold.
In the case of `Cc1cc(N)nc2cc(-c3ccc(OCc4cccnc4)c(CN)c3)ccc12.Cl.Cl.Cl` [Compound 33, 7-(3-(Aminomethyl)-4-(pyridin-3-ylmethoxy)phenyl)-4-methylquinolin-2-amine Trihydrochloride], in data set [8], the “fraction of concerning or moderate hits” value is 8/45 and the “PDSP binding summary: insignificant” value came to 20. Further, the “improvement in binding affinity toward heNOS” value in [3] (33 versus 32) was 3 fold.
Regarding `Cc1cc(N)nc2cc(-c3ccc(OCc4ccccn4)c(CN)c3)ccc12.Cl.Cl.Cl` [Compound 32, 7-(3-(Aminomethyl)-4-(pyridin-2-ylmethoxy)phenyl)-4-methylquinolin-2-amine Trihydrochloride], in data set [8], the “fraction of concerning or moderate hits” value is on record as 11/45 and the “PDSP binding summary: insignificant” value is 12.
As to `Cc1cc(N)nc2cc(-c3ccc(CN)cc3)ccc12.Cl.Cl` [Compound 7, 7-(4-(Aminomethyl)phenyl)-4-methylquinolin-2-amine Dihydrochloride], the “increase in rnNOS activity” value in data set [6] (relative to 5) is given as 2.3 fold.
`NCCc1ccc(O)c(O)c1` [dopamine]: the “prediction (CNS)” value in data set [9] is “CNS (−)”.

For orientation: pKi means the negative decadic logarithm of the Ki, by convention in mol/L.
